For assay [1], the system named is wild-type C. albicans (CAF2). Briefly: Viability by propidium iodide staining / microscopic examination. In kind it is cell-based. How it is done:
(§1) Fungi were grown overnight in YPD rich medium for yeast-form growth and RPMI 1640 for hyphal growth. C. albicans was grown at 37° C.; S. cerevisiae was grown at 30° C. For CF treatment, overnight cultures of C. albicans CAF2 were diluted 1:1,000 into fresh YPD or RPMI 1640 containing dilutions of CF (caspofungin acetate, Candidas formulation, Merck, Whitehouse Station, N.J., United States) and grown overnight. […] For viability, cells were stained with propidium iodide (Sigma, St. Louis, Mo., United States).
Cultures grown at one-quarter and one-eighth of the CF MIC50 (minimal inhibitory concentration to inhibit 50% of the organisms) were stained with anti-β-glucan antibody and Cy3-labeled secondary antibody (FIGS. 2A and D) for visualization by microscopy or with PE-labeled secondary antibody (FIG. 2B) for FACS quantification. […] Concurrently, cells were labeled briefly with propidium iodide to assess viability and visualized by epifluorescence microscopy or quantified by FACS (FIG. 2C). Cells grown overnight in YPD with or without CF were UV-inactivated and then exposed to BMDMs at a yeast:macrophage ratio of 10:1. Supernatants were taken at 6 h and assayed for TNFα (FIG. 2E).

The next assay relates to C. albicans CAF2. As to the kind of experiment: Growth inhibition of C. albicans by caspofungin (MIC50). The conditions noted are these: C. albicans CAF2 grown overnight in dilutions of CF. In kind it is cell-based. How it is done:
as §1

In assay [2] the test system is wild-type C. albicans (CAF2). Briefly: β-glucan exposure: anti-β-glucan antibody staining, microscopy and FACS. The conditions noted are these: for Mean fluorescence intensity (MFI), anti-β-glucan staining: FACS with PE-labeled secondary antibody. The assay is classed as cell-based. How it is done:
as §1
Fungi were grown overnight, washed, blocked in PBS+2% BSA, and stained with either the anti-β-glucan antibody (followed by Cy3- or PE-labeled secondary antibody), Alexa Fluor-labeled Dectin-CRD, or Dectin-CRD-anti-Myc. Staining with antibody and Dectin-CRD is described above for the screen. For staining with Dectin-CRD-anti-Myc, Dectin-CRD was preincubated with FITC-labeled anti-Myc (Invitrogen) at a ratio of 3.4 μg of Dectin-CRD+10 μl of anti-Myc, and then added to fungi at 1:100 on ice. Preincubation of Dectin-CRD with anti-Myc creates a probe with the same approximate size as the anti-β-glucan antibody but with the specificity of Dectin-1. Images of stained cells were taken using a Nikon TE2000-S microscope (Nikon, Tokyo, Japan) equipped with Spot RT camera (Diagnostic Instruments, Sterling Heights, Mich., United States) and processed in Photoshop (Adobe Systems, Palo Alto, Calif., United States). Fluorescence was quantified on a FACScalibur cytometer (Becton-Dickinson, Palo Alto, Calif., United States); cells were gated by forward and side scatter based on wild-type cell size and shape, and mean fluorescence intensity of 20,000 labeled cells was calculated using Cellquest software (Becton-Dickinson).
Cultures grown at one-quarter and one-eighth of the CF MIC50 (minimal inhibitory concentration to inhibit 50% of the organisms) were stained with anti-β-glucan antibody and Cy3-labeled secondary antibody (FIGS. 2A and D) for visualization by microscopy or with PE-labeled secondary antibody (FIG. 2B) for FACS quantification. […]

In the next assay the test system is anti-β-glucan antibody. Briefly: Blocking of anti-β-glucan antibody binding to gas1Δ mutant. The note with it: S. cerevisiae gas1Δ. The method, then:
Overnight cultures of strains were grown in YPD and stained with anti-β-glucan primary antibody (Biosupplies Inc., Parkville, Australia) and Cy3-labeled goat-anti-mouse secondary. […] Stained cells were adhered to clear-bottom plates with concanavalin A (Sigma) and scanned with Cellomics VTI fluorescence microscopic imager (Cellomics, Pittsburgh, Pa., United States) using Target Acquisition software (Zeiss, Oberkochen, Germany). Mean average intensity and standard deviation of average intensity measurements were used to identify strains with over two standard deviations greater β-glucan exposure. Initially matA mutant strains were screened, then the independently constructed matα counterparts were screened. […]
Fungi were grown overnight, washed, blocked in PBS+2% BSA, and stained with either the anti-β-glucan antibody (followed by Cy3- or PE-labeled secondary antibody), Alexa Fluor-labeled Dectin-CRD, or Dectin-CRD-anti-Myc. […] Fluorescence was quantified on a FACScalibur cytometer (Becton-Dickinson, Palo Alto, Calif., United States); cells were gated by forward and side scatter based on wild-type cell size and shape, and mean fluorescence intensity of 20,000 labeled cells was calculated using Cellquest software (Becton-Dickinson).

For the next assay, the system named is β-glucan receptor. As to the kind of experiment: Laminarin preincubation of BMDMs (β-glucan receptor blocking), cytokine ELISA. In kind it is cell-based, BL/6 mice. The method, then:
RAW264.7 macrophages (ATCC, Manassas, Va., United States) were cultured in RPMI-10 (RPMI 1640 with 10% heat-inactivated fetal bovine serum and standard concentrations of penicillin-streptomycin; GIBCO, San Diego, Calif., United States). Cells were collected and plated in 24-well plates at 5×10^5 cells/well. Bone marrow derived macro-phages (BMDMs) were differentiated as described (Brown G D, et al., (2003), J Exp Med 197:1119). Briefly, bone marrow from BL/6 mice was cultured in RPMI-10 with 15% L-cell conditioned media and 25 ng/ml recombinant M-CSF (R&D Systems, Minneapolis, Minn., United States). Cells were collected after 6 d and plated in 24-well plates at 5×10^5 cells/well.
Fungi were grown overnight, washed extensively to remove any shed proteins or polysaccharides, and normalized by OD600 or hemacytometer (these two methods produced equivalent results). For S. cerevisiae, live fungi were added to RAW264.7 macrophages at equivalent effector:target (E:T) ratio of 1:5 in 24-well plates and incubated for 6 h, when supernatants were collected for ELISA. […]
In FIG. 1A, C. albicans strains were exposed to RAW264.7 macrophages at a ratio of 2:1 (yeast:macrophage), and supernatants were collected after 6 h. […] After unbound fungi were washed off, macrophages were incubated for 6 h at 37° C., and supernatants were collected for TNFα quantitation.

As for caspofungin acetate [CF], the viability of fungi entry in assay [1] (sub-inhibitory CF concentrations, YPD, propidium iodide) is reported as “without loss of viability”. For the same substance, the “cell death of hyphae” value in assay [1] (subinhibitory CF, RPMI 1640, microscopic examination) is “did not show increased cell death”. The substance also gave an MIC50 in the assay on C. albicans CAF2 of 2.5 ng/mL. Also, the “Mean fluorescence intensity (MFI), anti-β-glucan staining” value in assay [2] (one-eighth the CF MIC50, YPD) turned out to be 65; in assay [2] (one-quarter the CF MIC50, YPD), 161. Also, in assay [2] (subinhibitory doses of CF, RPMI 1640 (hyphal growth)), the “exposure of β-glucan on hyphae” value is “dramatic increase”.

Take laminarin: the “binding of anti-β-glucan antibody to gas1Δ mutant in presence of soluble β-glucan” value with anti-β-glucan antibody was “blocked”. Moreover, the “increased elicitation of pro-inflammatory cytokines by unmasked C. albicans mutants after laminarin preincubation” value in the assay with β-glucan receptor (BMDMs preincubated 20 min on ice, yeast:macrophage 10:1, 6 h) is recorded as “great majority of the increased elicitation of pro-inflammatory cytokines could be blocked”. The “stimulation of macrophages by laminarin alone” value in the assay on β-glucan receptor (BMDMs, 100 μg/ml laminarin, no fungi, TNFα) is “does not stimulate”.

The values above are taken from patent US20080260724A1, “Drug Induced Exposure Of The Fungal Pro-Inflammatory Molecule Beta-Glucan” (priority 2005, published 2008).
